Data taken from patent publication US10391150B2, “Treatments for migraine and related disorders” (The University of Chicago, priority 2011, dated 2019).
Read-outs that look alike come from different tables or passages of the source.

What was measured:
[1] = system: oxidative stress (OS) in hippocampal slice cultures; assay: Oxidative stress (OS) by CellROX fluorescence in hippocampal slice cultures (CA3); format: cell-based, rat; settings: menadione exposure, without or with acute IGF-1
Protocol: FIGS. 4A-4F Oxidative stress (OS) from SD and its reduction by IGF-1. (FIG. 4A) Normal cytoarchitecture of a hippocampal slice culture showing pyramidal neuron areas of CA1, dentate gyrus (DG), and the imaging zone for the inventors' work here (dotted line), CA3. (FIG. 4B) OS was measured using CellROX, a fixable fluorescent marker from Invitrogen. […] (FIG. 4D) This reduction versus control SD was significant (p<0.02; n=4 & 5). (FIG. 4E) CellROX can be used to measure relative OS in specific brain cell types.
FIGS. 9a-9f IGF-1 decreased oxidative stress from spreading depression. (FIG. 9a) NeuN immunohistochemical labeling of a hippocampal slice culture, for cytoarchitectural reference and to show the CA3 area of interest (dotted line box) used for quantification of oxidative stress (OS) via CellROX™ fluorescence intensity. (FIGS. 9b-c) Representative CellROX™-labeled hippocampal slices exposed to SD (FIG. 9b) and to 3-day IGF-1 incubation followed by spreading depression (SD) (FIG. 9c). Dotted line boxes illustrate CA3 areas of interest used for relative OS quantifications. […] Again, seven day treatments consisted of exposing cultures to IGF-1 for 12 hours a day for seven days. Note: IGF-1 exposure was continued for the additional 24 hour CellROX™ incubation. Scale bars=400 μm (a) and 200 μm (b and c). Comparisons between groups were made via ANOVA plus Holm-Sidak post hoc testing.
(§1) FIGS. 11a-11g IGF-1 decreased CA3 oxidative stress (OS) and its related hyperexcitability. […] Relative evoked excitability was determined as a sum of responses seen (e.g., responses of “2” and a “3” yielded an overall excitability score of five). […] (FIGS. 11d-e) Exemplary images of control (FIG. 11d) slice culture OS compared to increased slice OS induced by exposure to menadione (FIG. 11e). Calibration bar, 200 Dotted boxes indicate CA3 areas of interest used for relative OS quantifications (f and g).
Oxidative stress from SD preferentially rises in astrocytes and microglia, with the latter effect mitigated by IGF-1 (FIG. 13). The inventors have recently shown that spreading depression (SD), the most likely cause of migraine aura and perhaps migraine (Lauritzen and Kraig, 2005), occurs with increased oxidative stress (OS) and that OS, in turn, increases SD susceptibility (Grinberg et al., 2012). Reactive oxygen and nitrogen species that cause OS have both autocrine and paracrine signaling capacities that can affect SD susceptibility by altering excitability (Kishida and Klann, 2007). Accordingly, the inventors looked for the cellular origin of OS from SD. Here the inventors used hippocampal slice cultures (HSC) to probe for cell-specific changes in OS from SD. SD was induced trans-synaptically in rat HSCs using bipolar electrical stimuli at the dentate gyrus (Pusic et al., 2011). Six SDs were induced every 7-9 min over an hr, followed by 24 hr incubation in CellROX™, a fixable fluorogenic probe for measuring OS (Grinberg et al., 2012). HSCs were then fixed in 10% buffered formalin phosphate. Other fixatives (PLP, 4% paraformaldehyde) prevented detection of OS change. Tissue was then labeled for neurons (anti-NeuN), oligodendrocytes (anti-RIP), astrocytes (anti-GFAP), or for microglia (isolectin GS-IB4).

[2] = system: spreading depression (SD) in hippocampal slice cultures; assay: Spreading depression (SD) threshold / susceptibility in hippocampal slice cultures; format: cell-based, rat
Description: FIGS. 2A-2E. […] (FIG. 2A) Experiments begin with determination of the current needed to maximize standard CA3 area field potential responses. Half-maximal intensity is then used to elicit CA3 area evoked field potentials from dentate gyrus bipolar electrical stimulation. This documents the normalcy of evoked synaptic responses between preparations. If a slice's field excitatory post synaptic potentials are not at least 3 mV, slices are discarded. Next, field potential trains (i) are noted to verify that preparations are healthy enough to follow 10 Hz stimulation (e.g., amplitudes of vertical deviations in fast potential records are similar) and the current needed to trigger SD (ii) is registered (Pusic and Kraig, 2010).
(FIG. 8a) Exemplary CA3 area evoked field potential. Experiments begin with establishment of the current intensity needed to evoke maximal field potential responses; stimuli of half-maximal intensity were then used to elicit subsequent field potentials. Only those cultures with CA3 pyramidal neuron post-synaptic responses of at least 3 mV were used for experiments. (FIG. 8b) CA3 response to dentate gyrus bipolar stimulation (10 pulses at 10 Hz, 500 μA) was used to elicit a spreading depression (SD), as shown in (FIG. 8c). (FIG. 8c) The spreading depression (SD) shown here was induced by the stimulation/response (arrow) shown in (FIG. 8b). […] Comparisons between groups made via Student's t-test.
The inventors induced SD trans-synaptically in rat HSC using electrical stimuli (100 μs pulses @ 10 Hz for 1 s) ranging from 1 to 10,000 nC in order to determine SD threshold in sham and experimental groups (Pusic et al., 2011). Results were based on n≥3-6/group. […] This insulin dose approximates the pharmacological levels seen in humans treated with nasal insulin.
Slice cultures were prepared and maintained as previously described (Mitchell et al., 2010a,). After 18 days in vitro (DIV), slice cultures were transferred to serum-free media that included additional calcium and magnesium. Cultures were screened at 21 DIV to ensure no pyramidal neuron death was present. Standard electrophysiological recordings were performed by placing a slice culture insert in a PDMI recording chamber with controlled temperature and pH (FIG. 1). The recording chamber was aerated with 5% CO2-balance air at 36° C. and media flowing at 1.2 mL/min or was held static around the slice culture insert. A recording electrode was placed at the CA3 pyramidal cell layer and a stimulating electrode was placed at the surface of the dentate gyrus. Recordings were initiated prior to placing the stimulating electrode on the culture to ensure no spreading depression was triggered as a result.
Studies began with determination of the current needed to maximize standard CA3 area field potential responses. This documented the normalcy of evoked synaptic responses between preparations. If a slice's field EPSPs were not at least 3-4 mV, it was discarded.
Next, trans-synaptically evoked SD was determined. Here, the inventors stimulated slices via the dentate gyrus with 100 μs pulses delivered at 10 Hz for 1 sec every 1-2 minutes at increasing μA current intensities until SD occurred.
Slice cultures are prepared, maintained, and induced to fire SD as previously described using trans-synaptic excitation of CA3, where SD is initiated (FIG. 4) (Kunkler et al., 2005; Pusic et al., 2011).

[3] = system: SD in neocortex and hippocampus of anesthetized rat; assay: SD threshold in vivo (0.5 M KCl injection) after nasal administration; settings: acutely after nasal treatment (IGF-1 150 μg; insulin 20 μg); control 1-8 nL
Protocol: Images show experimental setups for nasal administration and testing. (FIG. 7A) Nasal injection setup showing heat lamp and thermo-regulator that maintains temperature at 37° C. plus nose cone used to deliver isoflurane anesthesia. (FIG. 7B) Operator is shown administering nasal IGF-1 solution, which is performed in a fume hood to adequately vent isoflurane from nose cone. (FIG. 7C) Image illustrates standard electrophysiology setup. Anesthetized animal is placed into a standard electrophysiology holder and anesthesia maintained by a nose cone delivering 3% isoflurane in oxygen. Arterial oxygen saturation is monitored with a pulse-oximeter. Animals are warmed to 37.5° C. with a heating plate. SD is induced by progressively injecting larger volumes of 0.5 M KCl from an 8 μm diameter microelectrode. SD is registered with a second microelectrode used for DC recordings placed more caudally. After SD is evoked by a given injection pulse, the stimulating electrode is withdrawn and a volume re-injected under mineral oil. The diameter of the resultant KCl injection sphere is then measured off line using a compound microscope and the injection volume calculated. For example, in the above whole animal experiments it took 1-8 nL of 0.5 M KCl to evoke SD in control brain regions while after acute IGF-1 this amount rose to 67-109 nL. A day after IGF-1 treatment the volume needed to evoked SD was 34-48 nL. IFN-γ treatment required 338 nL of 0.5 M KCl a day after treatment and IL-11 required 67-200 nL.
Rats (FIGS. 6 and 7) are anesthetized with inhalational isoflurane and kept warm. While anesthetized, animals are placed in a supine position and 50 μL of sterile drug (i.e., IFN-γ, IGF-1, or IL-11) solution [or sterile saline vehicle (sham control)] is administered nasally by delivering 5 μL alternating between the left and right naris every 2 min over 20 minutes. Animals are given nasal drug treatments daily at the same time for 7 days before subsequent experiments. Doses for all 3 agents begin with the effective doses noted in our work using slice cultures (1×), then include others (0.1× and 10×). The inventors base this strategy on the fact that the effective culture dose for IGF-1 (40 ng/mL) closely approximates the dose used in vivo (143 μg/kg).
This approach was applied to measurement of SD threshold (FIG. 10) after treatment (FIG. 7) with nasally administered IGF-1 (150 μg), IL-11 (1 μg), IFN-γ (50,000 units), and insulin (20 μg). […] Resistance against SD was always greater in hippocampus compared to neocortex (n=4, controls; n=3, acutely after IGF-1; n=6, one day after IGF-1; n=6, one day after IL-11; n=6, one day after IFN-γ; and n=3, acutely after insulin).
Nasal administration followed by SD threshold evaluation in vivo. Vehicle or human recombinant IGF-1 (150 μg) is administered intranasally. SD threshold is established by injection of nanoliter volumes of 0.5 M KCl into neocortex or hippocampus (−2.0 mm from Bregma and 1.5 mm lateral from midline at either 750 μm or 2,800 μm into brain, respectively) using a thin-walled glass pipette and Picospritzer. Once a threshold is established, it is confirmed two more times, with an exemplary record from a vehicle-sham animal shown below. […] The diameter of the injected sphere is then measured using a compound microscope and used to calculate the injected volume, then moles of potassium. […]

[4] = system: CA3 area evoked excitability; format: cell-based, rat; settings: H2O2 exposure
Protocol: as §1

[5] = system: myelin basic protein (MBP); assay: Myelin basic protein (MBP) Western blot in hippocampal slice cultures; format: cell-based, rat; settings: after SD; anti-CD4 for 24 hours at 7 days in vitro; GW 4869
Protocol: FIGS. 14A-14C. Reduced myelin basic protein (MBP) from SD depends on IFN-γ/T-cell activation and sphingomylinase. […] Thus, confirming involvement of T cells.
FIGS. 15A-15C. Physiological and transient elevation [i.e., phasic (see FIG. 1)] of IFN-γ triggers completely opposite effects. Transient (i.e., 500 U/mL×12 hours; all groups n≥5) exposure of hippocampal slice cultures was nutritive when assessed seven days later.

Molecule: CC1=CC(=O)c2ccccc2C1=O [menadione, reference compound]
- OS induced by menadione versus control [1]: significant increase in slice OS

Molecule: Insulin
- relative SD threshold versus control (control 1.00±0.20) ([2]; 3-day exposure, insulin 400 μg/mL): 22.60±9.60
- insulin dose needed for protective effect relative to IGF-1 ([2]; protection against SD in slice cultures): 15 500 fold
- dose needed for protective effect against SD ([2]; slice cultures): 70 µM
- volume of 0.5 M KCl needed to evoke SD [3]: 8 to 34 nL

Molecule: OO [hydrogen peroxide, reference compound]
- evoked excitability versus control ([4]; without or with IGF-1 pretreatment for 3 days): increased slice excitability
- evoked excitability versus control ([4]; without or with acute IGF-1, 30 minutes after H2O2): significantly increased evoked slice hyperexcitability
- evoked excitability versus control ([4]; without or with acute IGF-1, 30 minutes after H2O2, listed as H2O2): increase in evoked excitability

Molecule: O=C(/C=C/c1ccc(/C=C/C(=O)Nc2ccc(C3=NCCN3)cc2)cc1)Nc1ccc(C2=NCCN2)cc1 [GW 4869, reference compound]
- decline in MBP / demyelination after SD [5]: prevents the drop in MBP after SD

B1: sTNFR1: soluble TNFR1 used for removal of TNF-α signaling (protein, UniProt P19438 30-211, looked up)
extracellular domain: LVPHLGDREKRDSVCPQGKYIHPQNNSICCTKCHKGTYLYNDCPGPGQDTDCRECESGSFTASENHLRHCLSCSKCRKEMGQVEISSCTVDRDTVCGCRKNQYRHYWSENLFQCFNCSLCLNGTVHLSCQEKQNTVCTCHAGFFLRENECVSCSNCKKSLECTKLCLPQIENVKGTEDSGTT
modifications: extracellular domain
notes: soluble TNFR1 used for removal of TNF-α signaling
- SD-induced increased susceptibility to SD ([2]; after previous SD, soluble TNFR1 200 ng/mL after first day of SD, anti-CD4 0.1 mg/mL at 7 days for 24 hours): abrogated
